The results in this text go back to patent US7056922B2, “Acylamino cyclopropane derivatives” (Pfizer Inc, priority 2000, dated 2006).

For orientation: Ki means the equilibrium dissociation constant of an inhibitor or competing ligand from its target.

The target of assay [1] is human dopamine D3 receptor (Homo sapiens, UniProt P35462). The assay is described as follows: Displacement of [3H] 7 OH-DPAT binding to membranes of CHO cells expressing human dopamine D3 receptor. As to conditions: [3H] 7 OH-DPAT 0.4 nM, CHO cell membranes, cloned human D3 receptor. On the procedure:
The inhibition constants (Ki) of test compounds were measured by displacement of [^3H] 7 OH-DPAT binding to membrane preparations from Chinese hamster ovary cells expressing human dopamine D3 receptor. Cells expressing the human D3 receptor were homogenized with Polytron and centrifuged for 10 min at 4° C. at 20,000 RPM in a Sorvall RCB5 centrifuge with a SS34 rotor. After repeating the washing once more, the pellet was resuspended in buffer consisting of 120 mM NaCl, 5 mM KCl, 5 mM MgCl2, 2 mM CaCl2 and 50 mM tris, pH 7.4 and the protein content determined using bovine serum albumin as a standard (Bradford, M. M. (1976) Anal. Biochem. 72, 248–254). Compounds at varying concentrations were incubated with the membrane preparations in the presence of 0.4 nM [^3H] 7 OH-DPAT. The assay was incubated for 15 min at 37° C. and the reaction was terminated by rapid filtration with 50 mM Tris pH 7.4, through GF/B filters previously soaked in 0.5% polyethyleneimine. Filters were dried overnight and counted in Betaplate Scintillation counter. Non-specific binding was defined as the radioligand binding remaining after incubation in the presence of 10 μM butacomol. For competition curves, seven concentrations (single log dilutions) of competing unlabeled, compounds were used. Competition curves were analysed simultaneously whenever possible using non-linear least-squares fitting procedures, capable of fitting one, two or three site models.
(In a radioligand displacement assay an active substance lowers the binding of a labelled ligand.)

Another assay concerns the target dopamine D2 receptor (Homo sapiens, UniProt P14416). The assay is described as follows: Dopamine D2 receptor binding (Binding data table).

Structures can show the parent of a compound that is named as a salt.

Chain of dopamine D2 receptor (P14416 whole entry, species assumed): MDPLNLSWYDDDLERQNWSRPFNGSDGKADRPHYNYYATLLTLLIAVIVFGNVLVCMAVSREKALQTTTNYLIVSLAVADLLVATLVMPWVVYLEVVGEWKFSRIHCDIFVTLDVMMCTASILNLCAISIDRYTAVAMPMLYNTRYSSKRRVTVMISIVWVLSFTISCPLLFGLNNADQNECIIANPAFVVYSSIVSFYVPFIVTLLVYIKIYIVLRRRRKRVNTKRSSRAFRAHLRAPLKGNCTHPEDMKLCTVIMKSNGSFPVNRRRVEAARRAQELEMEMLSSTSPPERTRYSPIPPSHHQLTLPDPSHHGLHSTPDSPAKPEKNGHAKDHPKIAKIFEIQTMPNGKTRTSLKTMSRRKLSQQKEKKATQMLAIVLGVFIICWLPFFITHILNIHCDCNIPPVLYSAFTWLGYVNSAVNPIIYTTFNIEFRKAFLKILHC
Chain of human dopamine D3 receptor (P35462 whole entry): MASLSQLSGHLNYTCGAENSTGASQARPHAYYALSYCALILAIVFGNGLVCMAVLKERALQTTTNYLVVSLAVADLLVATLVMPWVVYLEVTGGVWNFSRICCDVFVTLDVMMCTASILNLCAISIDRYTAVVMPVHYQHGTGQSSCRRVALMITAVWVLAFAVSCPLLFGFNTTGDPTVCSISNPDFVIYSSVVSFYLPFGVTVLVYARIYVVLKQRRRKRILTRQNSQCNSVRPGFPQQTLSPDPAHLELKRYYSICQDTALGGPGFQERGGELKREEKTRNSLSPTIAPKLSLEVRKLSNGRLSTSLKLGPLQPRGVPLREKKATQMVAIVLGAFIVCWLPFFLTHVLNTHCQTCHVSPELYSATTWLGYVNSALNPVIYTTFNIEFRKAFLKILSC

Consider `Cc1cccc(C)c1C(=O)NCC1CC1CN1CCN(c2cc(C(F)(F)F)nc(C(C)(C)C)n2)CC1` (racemic) [N-{(Z)-2-[4-(2-tert-Butyl-6-trifluoromethyl-pyrimidin-4-yl)-piperazin-1-ylmethyl]-cyclopropylmethyl}-2,6-dimethyl-benzamide, dihydrochloride salt], for which the Ki was 16 nM in assay [1] and more than 770 nM at dopamine D2 receptor.

Regarding `CC(C)(C)c1nc(N2CCN(CC3CC3CNC(=O)c3ccc(Cl)cc3)CC2)cc(C(F)(F)F)n1` (racemic) [[Z](+/−)N-{2-[4-(2-tert-Butyl-6-trifluoromethyl-pyrimidin-4-yl)-piperazin-1-ylmethyl]-cyclopropylmethyl}-4-chloro-benzamide], the inhibitory constant (Ki) in assay [1] is 31 nM; at dopamine D2 receptor, more than 740 nM.

As for `Cc1cccc(C)c1C(=O)NCC1CC1CN1CCN(c2cccc(C(F)(F)F)c2)CC1` (single isomer, unassigned) [2,6-Dimethyl-N-{(E)-2-[4-(3-trifluoromethyl-phenyl)-piperazin-1-ylmethyl]-cyclopropylmethyl}benzamide], the Ki was found to be 2 nM in assay [1] and 76 nM at dopamine D2 receptor.

For the molecule `Cc1cccc(C)c1C(=O)NCC1CC1CN1CCN(c2cccc(C(F)(F)F)c2)CC1` (single isomer, unassigned) [2,6-Dimethyl-N-{(Z)-2-[4-(3-trifluoromethyl-phenyl)-piperazin-1-ylmethyl]-cyclopropylmethyl}benzamide], the values for the Ki (in assay [1]; on dopamine D2 receptor) were 5 nM and 460 nM, respectively.
